Source: ChEMBL document CHEMBL1201862, “PubChem BioAssay data set” (2004)
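Method: 48-hour compound exposure of cells in 96-well plates, five concentrations, linear interpolation of endpoints. At the GI50, growth is halved.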 Active and inactive are the calls of the source. No stated cut-off is given here; in the data, active = GI50 up to about 1.1 µM and inactive = higher.

Key:
Test in all cases: NCI-60 cell line screen, 48 h
SK-MEL-5 = tested on: SK-MEL-5
RPMI-8226 = tested on: RPMI-8226
A498 = tested on: A498
HT-29 = tested on: HT-29
NCI-H460 = tested on: NCI-H460
IGROV-1 = tested on: IGROV-1
OVCAR-8 = tested on: OVCAR-8
HCT-116 = tested on: HCT-116
LOX IMVI = tested on: LOX IMVI
SN12C = tested on: SN12C
ACHN = tested on: ACHN
SF-295 = tested on: SF-295
Malme-3M = tested on: Malme-3M
UACC-257 = tested on: UACC-257
SNB-75 = tested on: SNB-75

Measured: GI50

O=C1NC(=O)C(=Cc2c3ccccc3cc3ccccc23)C(=O)N1
inactive: SK-MEL-5 > 100 µM | RPMI-8226 31.6 µM | A498 > 100 µM | HT-29 55.1 µM | NCI-H460 > 100 µM | IGROV-1 > 100 µM | OVCAR-8 > 100 µM | HCT-116 > 100 µM | LOX IMVI > 100 µM | SN12C > 100 µM | ACHN > 100 µM

CN1CC(C(=O)C2C(=O)c3ccccc3C2=O)C(=O)C(=O)C(C(=O)C2C(=O)c3ccccc3C2=O)C1 (stereo not given)
inactive: A498 > 100 µM | SF-295 > 100 µM | Malme-3M > 100 µM | UACC-257 > 100 µM | HT-29 > 100 µM | NCI-H460 > 100 µM | IGROV-1 > 100 µM | OVCAR-8 77.6 µM | SNB-75 32.9 µM | HCT-116 > 100 µM | LOX IMVI > 100 µM | SN12C > 100 µM | ACHN > 100 µM

COC(=O)[C@@H]1CSC(=S)N1C(=O)C[C@H]1CC=CC[C@H]1CC(=O)Sc1ccccc1
inactive: RPMI-8226 12.5 µM | SF-295 22 µM | Malme-3M 21.5 µM | UACC-257 18.5 µM | HT-29 19.8 µM | NCI-H460 17.7 µM | IGROV-1 19.8 µM | OVCAR-8 21 µM | SNB-75 15.4 µM | HCT-116 16.1 µM | LOX IMVI 17.7 µM | SN12C 15.7 µM | ACHN 17.6 µM

O=C1NC(=O)C(C(=O)C(=O)Nc2cccc(C(F)(F)F)c2)C(=O)N1
inactive: SK-MEL-5 > 100 µM | RPMI-8226 > 100 µM | A498 > 100 µM | Malme-3M > 100 µM | UACC-257 53 µM | NCI-H460 > 100 µM | IGROV-1 > 100 µM | OVCAR-8 > 100 µM | SNB-75 52.8 µM | HCT-116 > 100 µM | LOX IMVI > 100 µM | ACHN > 100 µM

CCCNC(=O)C(C)(Cl)C(=O)c1ccccc1O (stereo not given)
inactive: SK-MEL-5 > 100 µM | RPMI-8226 > 100 µM | A498 > 100 µM | Malme-3M > 100 µM | UACC-257 > 100 µM | NCI-H460 > 100 µM | IGROV-1 > 100 µM | OVCAR-8 > 100 µM | SNB-75 > 100 µM | HCT-116 > 100 µM | SN12C > 100 µM | ACHN > 100 µM

CCOC(=O)C1C(c2ccc(Br)cc2)N(Cc2ccccc2)C(c2ccc(Br)cc2)C(C(=O)OC)S1(=O)=O (stereo not given)
inactive: RPMI-8226 32.7 µM | SF-295 35.4 µM | Malme-3M > 100 µM | UACC-257 24.9 µM | HT-29 66.8 µM | NCI-H460 > 100 µM | IGROV-1 > 100 µM | OVCAR-8 24.8 µM | SNB-75 21.3 µM | HCT-116 25.2 µM | LOX IMVI > 100 µM | SN12C > 100 µM | ACHN 93.5 µM

C/C(=N\NS(=O)(=O)c1ccccc1)c1ccc[n+]([O-])n1
inactive: SK-MEL-5 > 100 µM | RPMI-8226 28.1 µM | A498 > 100 µM | SF-295 > 100 µM | UACC-257 58.7 µM | HT-29 > 100 µM | NCI-H460 > 100 µM | IGROV-1 > 100 µM | OVCAR-8 81.7 µM | SNB-75 47.6 µM | HCT-116 88.1 µM | SN12C > 100 µM | ACHN > 100 µM

O=C1CC2CCN(C(=O)c3ccccc3)CC2CCN1.O=C1CCC2CC(C(=O)c3ccccc3)CCC2CN1 (stereo not given)
inactive: SK-MEL-5 42.6 µM | RPMI-8226 > 100 µM | SF-295 > 100 µM | Malme-3M > 100 µM | UACC-257 > 100 µM | HT-29 > 100 µM | NCI-H460 > 100 µM | IGROV-1 > 100 µM | OVCAR-8 > 100 µM | SNB-75 > 100 µM | HCT-116 > 100 µM | SN12C > 100 µM | ACHN > 100 µM
